What was measured:
[1] = system: MIA PaCa-2 cells; assay: Cellular viability assay (Cell Titer Fluor); type: cell-based; conditions: Homo sapiens, 72 hours incubation
Protocol: Cell viability were performed using the Cell Titer Fluor™ Assays (Promega G6080). MIA PaCa-2 cells are grown in DMEM media with 10% FBS, 1% Pen/Strep/Amphotericin B. Cells are trypsinized and counted using the Nexcelom cellometer. 5,000 cells/100 μl are plated per well in Greiner black/clear 96-well plates. Cells should be within 10 passages of stock vial for use in workflow. Three distinct lineages of these cells are cultured in parallel for multiple passages and 5 full plates of each lineage are seeded for one run. Small molecule compounds are provided as 100 mM stock solutions in DMSO. Dilution series plates are prepared using 1:3 dilution to achieve a 7 point concentration on a half log scale. After addition of compounds, cells are incubated 37° C., 5% CO2 for 72 hours.
For each test compound condition, triplicate technical replicates are used. For each reference compound, duplicate technical replicates are used. At the end of the 72-hour incubation, spent media is discarded. Then, 100 μl of GF-AFC diluted in DMEM (serum and phenol red-free) is added at 1:2000 concentration (5 μl/10 ml). Cells are incubated with reaction buffer for 1 h at 37° C. Fluorescence is then read on the plate reader with excitation wavelength of 390 nm and emission wavelength of 505 nm. All raw data are analyzed on Microsoft Excel 2010 and normalized to the DMSO vehicle control. Relative results are copied into GraphPad Prism for non-linear regression analysis and determination of IC50 and other dose curve parameters (min, max, Hill slope, etc.) using the log (inhibitor) vs. response equation. Values are as follows: A represents an IC50 of <[…], B represents an IC50 of 1 mM to 10 mM, C represents an IC50 of >10 mM.

[2] = system: K-562 tumor grafts; assay: Tumor growth inhibition in K-562 murine xenograft model; type: in vivo, Mouse (Mus musculus); conditions: bid., p.o., K-562 xenograft, SCID Bg mice
Protocol: K-562 cancer cell line sourced from American Type Culture Collection (ATCC), USA. Cells were grown in IMDM medium (Sigma, Cat #30-2005) supplemented with 10% FBS (Invitrogen, Cat #10438-026), and 1% penicillin streptomycin (Invitrogen, Cat #15140-122). To establish xenograft, the cells were harvested by trypsinization when they reach around 70 to 80% confluence and 5 million K-562 cells were suspended in 200 μL of serum-free medium and mixed at 1:1 ratio with matrigel before implanting subcutaneously into the dorsal right flank of SCID Bg mice using a 1 mL BD syringe attached to a 24-gauge needle.
K-562 tumor grafts were measured after 10 days of cell inoculation once they became palpable. When the average tumor volume reached around 85 mm^3, animals were dosed after randomization into different treatment groups keeping tumor volume and number of animals in such a way so that the average tumor volume of each group remained same across the groups.
Compounds were formulated in 0.5% CMC+0.1% Tween 80 and given for 12 consecutive days BID with 8 hour gaps.

O=C(NCc1n[nH]c(-c2cccs2)n1)c1nccnc1N1CCCC(F)(F)C1 [Compound 90] was tested, and the IC50 ([1]; MIA PaCa-2, 72 h) was greater than 10 µM.

Compound O=C(NCc1cc(-c2cc(F)ccc2O)[nH]n1)c1cc(F)ccc1N1CCCCC1 [Compound 91] has an IC50 ([1]; MIA PaCa-2, 72 h) of less than 1 µM.

CCOc1ccc(F)cc1-c1cc(CNC(=O)c2cc(F)ccc2N2CCCC2)n[nH]1 [Compound 92] was tested, and the IC50 ([1]; MIA PaCa-2, 72 h) was less than 1 µM.

CC(C)Oc1ccc(F)cc1-c1cc(CNC(=O)c2cc(F)ccc2N2CCCCC2)n[nH]1 [Compound 93] showed an IC50 ([1]; MIA PaCa-2, 72 h) of less than 1 µM.

Work on O=C(NCc1cc(-c2cccs2)[nH]n1)c1cc(F)ccc1N1CCCC1 [Compound 94] yielded an IC50 ([1]; MIA PaCa-2, 72 h) of less than 1 µM.

Work on Cc1ccc(N2CCCC(F)(F)C2)c(C(=O)NCc2cc(-c3cccs3)[nH]n2)c1 [Compound 96] yielded an IC50 ([1]; MIA PaCa-2, 72 h) of less than 1 µM.

Cc1cccc(C(=O)NCc2cc(-c3cccs3)[nH]n2)c1N1CCC(F)(F)C1 [Compound 97] gave an IC50 ([1]; MIA PaCa-2, 72 h) of 1 to 10 µM.

CC(C)Oc1ccc(F)cc1-c1cc(CNC(=O)c2cc(F)ccc2N2CCCC2)n[nH]1 [Compound 98] gave an IC50 ([1]; MIA PaCa-2, 72 h) of less than 1 µM.

With CCOc1ccc(F)cc1-c1cc(CNC(=O)c2cc(F)ccc2N2CCCCC2)n[nH]1 [Compound 99] the IC50 ([1]; MIA PaCa-2, 72 h) was less than 1 µM.

Compound COc1ccccc1-c1cc(CNC(=O)c2cc(F)ccc2N2CCCCC2)n[nH]1 [Compound 100] has an IC50 ([1]; MIA PaCa-2, 72 h) of less than 1 µM.

O=C(NCc1cc(-c2ccccc2O)[nH]n1)c1cc(F)ccc1N1CCCCC1 [Compound 101] showed an IC50 ([1]; MIA PaCa-2, 72 h) of less than 1 µM.

With COc1ccccc1-c1cc(CNC(=O)c2ccccc2N2CCCCC2)n[nH]1 [Compound 102, N-((5-(2-methoxyphenyl)-1H-pyrazol-3-yl)methyl)-2-(piperidin-1-yl) benzamide] the IC50 ([1]; MIA PaCa-2, 72 h) was less than 1 µM.

O=C(NCc1cc(-c2cccs2)[nH]n1)c1ccccc1N1CCCCCC1 [Compound 103] gave an IC50 ([1]; MIA PaCa-2, 72 h) of less than 1 µM.

In the case of COc1ccccc1-c1cc(CNC(=O)c2cc(F)ccc2N2CCCC2)n[nH]1 [Compound 104], the IC50 ([1]; MIA PaCa-2, 72 h) is reported as less than 1 µM.

Work on COc1ccccc1-c1cc(CNC(=O)c2ccccc2N2CCCC2)n[nH]1 [Compound 105] yielded an IC50 ([1]; MIA PaCa-2, 72 h) of less than 1 µM.

COc1ccc(F)cc1-c1cc(CNC(=O)c2cc(F)ccc2N2CCCCC2)n[nH]1 [Compound 110] showed an IC50 ([1]; MIA PaCa-2, 72 h) of less than 1 µM.

Work on COc1cccc(-c2cc(CNC(=O)c3ccccc3OC(F)(F)F)n[nH]2)c1OC [Compound 114] yielded an IC50 ([1]; MIA PaCa-2, 72 h) greater than 10 µM.

With CCCOc1ccc(F)cc1-c1cc(CNC(=O)c2ccccc2OC(F)(F)F)n[nH]1 [Compound 115] the IC50 ([1]; MIA PaCa-2, 72 h) was greater than 10 µM.

In the case of CC(C)Oc1ccc(F)cc1-c1cc(CNC(=O)c2ccccc2OC(F)(F)F)n[nH]1 [Compound 116], the IC50 ([1]; MIA PaCa-2, 72 h) is reported as greater than 10 µM.

COc1ccc(-c2cc(CNC(=O)c3ccccc3OC(F)(F)F)n[nH]2)c(OC)c1 [Compound 117] gave an IC50 ([1]; MIA PaCa-2, 72 h) greater than 10 µM.

COc1ccccc1-c1nc(C2(NC(=O)c3ccccc3OC(F)F)CC2)n[nH]1 [Compound 118, 2-(difluoromethoxy)-N-(1-(5-(2-methoxyphenyl)-1H-1,2,4-triazol-3-yl)cyclopropyl) benzamide] was tested, and the IC50 ([1]; MIA PaCa-2, 72 h) was 1 to 10 µM.

With COc1ccc(F)cc1-c1nc(CNC(=O)c2ccc3c(c2)OC(F)(F)O3)n[nH]1 [Compound 119] the IC50 ([1]; MIA PaCa-2, 72 h) was 1 to 10 µM.

Work on COc1ccccc1-c1nc(CNC(=O)c2ccc3c(c2)OC(F)(F)O3)n[nH]1 [Compound 120] yielded an IC50 ([1]; MIA PaCa-2, 72 h) of 1 to 10 µM.

In the case of COc1ccccc1-c1cc(S(=O)(=O)NC(=O)c2ccccc2OC(F)F)n[nH]1 [Compound 121, 2-(difluoromethoxy)-N-((5-(2-methoxyphenyl)-1H-pyrazol-3-yl)sulfonyl) benzamide], the IC50 ([1]; MIA PaCa-2, 72 h) is reported as greater than 10 µM.

With COc1ccccc1-c1cc(S(=O)(=O)NC(=O)c2ccccc2OC(F)(F)F)n[nH]1 [Compound 122, N-[[5-(2-methoxyphenyl)-1H-pyrazol-3-yl]sulfonyl]-2-(trifluoromethoxy)benzamide] the IC50 ([1]; MIA PaCa-2, 72 h) was greater than 10 µM.

COc1ccccc1-c1nc(S(=O)(=O)NC(=O)c2ccccc2OC(F)(F)F)n[nH]1 [Compound 123, N-((5-(2-methoxyphenyl)-1H-1,2,4-triazol-3-yl)sulfonyl)-2-(trifluoromethoxy) benzamide] was tested, and the IC50 ([1]; MIA PaCa-2, 72 h) was 1 to 10 µM.

COc1ccccc1-c1nc(S(=O)(=O)NC(=O)c2ccccc2OC(F)F)n[nH]1 [Compound 124, 2-(difluoromethoxy)-N-((5-(2-methoxyphenyl)-1H-1,2,4-triazol-3-yl)sulfonyl) benzamide] showed an IC50 ([1]; MIA PaCa-2, 72 h) of 1 to 10 µM.

With COc1ccccc1-c1nc(CNC(=O)c2ccccc2OC(F)(F)F)n[nH]1 [Compound 125] the IC50 ([1]; MIA PaCa-2, 72 h) was less than 1 µM.

COc1ccccc1-c1nc(CNC(=O)c2ccccc2OC(F)F)n[nH]1 [Compound 126, 2-(difluoromethoxy)-N-((5-(2-methoxyphenyl)-1H-1,2,4-triazol-3-yl)methyl) benzamide] was tested, and the “% Tumor Growth Inhibition (TGI) on day 3” value ([2]; 75 mg/kg/dose) was 41%, the “% Tumor Growth Inhibition (TGI) on day 5” value ([2]; 75 mg/kg/dose) was 32% and the “% Tumor Growth Inhibition (TGI) on day 8” value ([2]; 75 mg/kg/dose) was 27%. The “% Tumor Growth Inhibition (TGI) on day 10” value ([2]; 75 mg/kg/dose) was 27%, the “% Tumor Growth Inhibition (TGI) on day 12” value ([2]; 75 mg/kg/dose) was 36% and the “% Tumor Growth Inhibition (TGI) on day 3” value ([2]; 200 mg/kg/dose) was 55%. For the same compound, the “% Tumor Growth Inhibition (TGI) on day 5” value ([2]; 200 mg/kg/dose) was 51%, the “% Tumor Growth Inhibition (TGI) on day 8” value ([2]; 200 mg/kg/dose) was 51% and the “% Tumor Growth Inhibition (TGI) on day 10” value ([2]; 200 mg/kg/dose) was 43%. The “% Tumor Growth Inhibition (TGI) on day 12” value ([2]; 200 mg/kg/dose) was 44% and the IC50 ([1]; MIA PaCa-2, 72 h) was less than 1 µM.

COc1ccc(F)cc1-c1nc(CNC(=O)c2ccccc2OC(F)(F)F)n[nH]1 [Compound 127, N-((5-(5-fluoro-2-methoxyphenyl)-1H-1,2,4-triazol-3-yl)methyl)-2-(trifluoromethoxy)benzamide] was tested, and the IC50 [1] was less than 1 µM.

Compound COc1ccc(F)cc1-c1nc(CNC(=O)c2ccccc2OC(F)F)n[nH]1 [Compound 128] has an IC50 ([1]; MIA PaCa-2, 72 h) of less than 1 µM.

O=C(NCc1n[nH]c(-c2cc(F)ccc2O)n1)c1ccccc1OC(F)F [Compound 129] was tested, and the IC50 ([1]; MIA PaCa-2, 72 h) was less than 1 µM.

In the case of O=C(NCc1n[nH]c(-c2cc(F)ccc2O)n1)c1ccccc1OC(F)(F)F [Compound 130], the IC50 ([1]; MIA PaCa-2, 72 h) is reported as less than 1 µM.

With COc1ccccc1-c1nc(CNC(=O)c2cccc3c2OC(F)(F)O3)n[nH]1 [Compound 132] the IC50 ([1]; MIA PaCa-2, 72 h) was less than 1 µM.

In the case of COc1ccccc1-c1nc(CNC(=O)c2cc(F)ccc2OC(F)(F)F)n[nH]1 [Compound 134], the IC50 ([1]; MIA PaCa-2, 72 h) is reported as less than 1 µM.

For COc1ccc(F)cc1-c1nc(CNC(=O)c2cccc(F)c2OC(F)F)n[nH]1 [Compound 135, 2-(difluoromethoxy)-3-fluoro-N-((5-(5-fluoro-2-methoxyphenyl)-1H-1,2,4-triazol-3-yl)methyl) benzamide], the IC50 ([1]; MIA PaCa-2, 72 h) was less than 1 µM.

COc1ccccc1-c1nc(CNC(=O)c2cccc(F)c2OC(F)F)n[nH]1 [Compound 136, 2-(difluoromethoxy)-3-fluoro-N-((5-(2-methoxyphenyl)-1H-1,2,4-triazol-3-yl)methyl) benzamide] showed an IC50 ([1]; MIA PaCa-2, 72 h) of less than 1 µM.

In the case of COc1ccccc1-c1nc(CNC(=O)c2cc(F)ccc2OC(F)F)n[nH]1 [Compound 138, 2-(difluoromethoxy)-5-fluoro-N-((5-(2-methoxyphenyl)-1H-1,2,4-triazol-3-yl)methyl) benzamide], the IC50 ([1]; MIA PaCa-2, 72 h) is reported as less than 1 µM.

With COc1ccc(F)cc1-c1nc(CNC(=O)c2cc(C#N)ccc2OC(F)F)n[nH]1 [Compound 139] the IC50 ([1]; MIA PaCa-2, 72 h) was less than 1 µM.

COc1ccccc1-c1nc(CNC(=O)c2cc(C#N)ccc2OC(F)F)n[nH]1 [Compound 140] showed an IC50 ([1]; MIA PaCa-2, 72 h) of less than 1 µM.

COc1ccc(F)cc1-c1nc(CNC(=O)c2cccnc2OC(F)F)n[nH]1 [Compound 143, 2-(difluoromethoxy)-N-((5-(5-fluoro-2-methoxyphenyl)-1H-1,2,4-triazol-3-yl)methyl) nicotinamide] gave an IC50 ([1]; MIA PaCa-2, 72 h) of less than 1 µM.

COc1ccccc1-c1nc(CNC(=O)c2cccnc2OC(F)F)n[nH]1 [Compound 144, 2-(difluoromethoxy)-N-((5-(2-methoxyphenyl)-1H-1,2,4-triazol-3-yl)methyl) nicotinamide] gave an IC50 ([1]; MIA PaCa-2, 72 h) of less than 1 µM.

Work on COc1ccc(F)cc1-c1nc(CNC(=O)c2cnccc2OC(F)F)n[nH]1 [Compound 147] yielded an IC50 ([1]; MIA PaCa-2, 72 h) of 1 to 10 µM.

Compound COc1ccccc1-c1nc(CNC(=O)c2cnccc2OC(F)F)n[nH]1 [Compound 148] has an IC50 ([1]; MIA PaCa-2, 72 h) of 1 to 10 µM.

From US11091447B2, “UBE2K modulators and methods for their use” (Berg LLC, priority 2020, dated 2021)
